Series [1] concerns Staphylococcus aureus. In words: Bactericidal activity against Staphylococcus aureus. Type of series: functional.
Series [2] addresses Phosphatidylinositol 4,5-bisphosphate 3-kinase catalytic subunit alpha isoform (Homo sapiens, UniProt P42336). In words: Inhibition of PI3Kalpha (unknown origin) incubated for 90 mins by [gamma-33P]-ATP based scintillation counting method.
In series [3] the target is T1, Phosphatidylinositol 4,5-bisphosphate 3-kinase catalytic subunit delta isoform (Homo sapiens, UniProt O00329).
T1 sequence (O00329 whole entry): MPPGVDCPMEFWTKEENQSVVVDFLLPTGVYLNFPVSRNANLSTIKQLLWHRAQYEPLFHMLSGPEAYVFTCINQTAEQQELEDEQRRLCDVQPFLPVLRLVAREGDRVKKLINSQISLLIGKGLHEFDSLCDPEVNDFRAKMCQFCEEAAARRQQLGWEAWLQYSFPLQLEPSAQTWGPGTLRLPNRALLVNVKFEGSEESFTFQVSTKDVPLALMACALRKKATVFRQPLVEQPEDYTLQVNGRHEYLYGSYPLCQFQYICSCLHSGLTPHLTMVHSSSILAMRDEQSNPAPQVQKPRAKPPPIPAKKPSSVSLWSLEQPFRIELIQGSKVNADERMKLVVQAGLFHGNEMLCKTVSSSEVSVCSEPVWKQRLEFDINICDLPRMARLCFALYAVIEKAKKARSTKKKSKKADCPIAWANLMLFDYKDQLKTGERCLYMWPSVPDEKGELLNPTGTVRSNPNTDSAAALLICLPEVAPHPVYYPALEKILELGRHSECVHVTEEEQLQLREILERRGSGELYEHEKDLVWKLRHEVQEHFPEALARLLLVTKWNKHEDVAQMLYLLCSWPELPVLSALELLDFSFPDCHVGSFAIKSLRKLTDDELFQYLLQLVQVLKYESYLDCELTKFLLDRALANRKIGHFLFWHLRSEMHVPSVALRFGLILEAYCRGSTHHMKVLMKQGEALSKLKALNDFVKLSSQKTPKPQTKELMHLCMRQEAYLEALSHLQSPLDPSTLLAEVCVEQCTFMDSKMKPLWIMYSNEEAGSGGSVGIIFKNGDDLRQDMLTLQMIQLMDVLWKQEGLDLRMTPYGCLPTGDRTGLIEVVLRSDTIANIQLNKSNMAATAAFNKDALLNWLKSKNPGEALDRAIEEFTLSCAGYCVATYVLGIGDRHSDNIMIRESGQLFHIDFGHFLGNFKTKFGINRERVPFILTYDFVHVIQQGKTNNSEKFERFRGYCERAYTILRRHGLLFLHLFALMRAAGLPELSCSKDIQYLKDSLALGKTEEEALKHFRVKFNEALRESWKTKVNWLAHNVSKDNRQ
Nature of the series: Inhibition of PI3Kdelta (unknown origin) incubated for 90 mins by [gamma-33P]-ATP based scintillation counting method.

Series [4] has as its target Phosphatidylinositol 4,5-bisphosphate 3-kinase catalytic subunit gamma isoform (Homo sapiens, UniProt P48736). Nature of the series: Inhibition of PI3Kgamma (unknown origin) incubated for 90 mins by [gamma-33P]-ATP based scintillation counting method.
The nature of series [5]: Inhibition of PI3Kdelta in Rat1 cells reduction in phosphorylation of AKT at Ser473 residue incubated for 2 hrs by alpha screen assay. Type of series: cell-based. To be noted: Rattus norvegicus, Rat1, 2 h. Background: Alpha assays give light when donor and acceptor beads are brought close together.
The target of series [6] is COX-1/COX-2 (Homo sapiens) (UniProt P35354+P23219). Nature of the series: Selectivity index, ratio of IC50 for human COX-1 to IC50 for human COX-2. Type of series: protein assay.
Series [7] has as its system K562. In words: Anticancer activity against human K562 cells assessed as reduction in cell viability. The class given is functional, cell-based.
The subject of series [8] is Ehrlich. In words: Antitumor activity against mouse EAC cells implanted in mouse assessed as decrease in total ascitic volume. Type of series: functional. The arrangement: scale not given: the % may be the effect or the level left.
For series [9], the system named is Ehrlich. In words: Antitumor activity against mouse EAC cells implanted in mouse assessed as reduction in tumor cell count. Type of series: functional. Details: scale not given: the % may be the effect or the level left.
Series [10] concerns the target T2, Thermolysin (Bacillus thermoproteolyticus, UniProt P00800).
T2 sequence (P00800 whole entry): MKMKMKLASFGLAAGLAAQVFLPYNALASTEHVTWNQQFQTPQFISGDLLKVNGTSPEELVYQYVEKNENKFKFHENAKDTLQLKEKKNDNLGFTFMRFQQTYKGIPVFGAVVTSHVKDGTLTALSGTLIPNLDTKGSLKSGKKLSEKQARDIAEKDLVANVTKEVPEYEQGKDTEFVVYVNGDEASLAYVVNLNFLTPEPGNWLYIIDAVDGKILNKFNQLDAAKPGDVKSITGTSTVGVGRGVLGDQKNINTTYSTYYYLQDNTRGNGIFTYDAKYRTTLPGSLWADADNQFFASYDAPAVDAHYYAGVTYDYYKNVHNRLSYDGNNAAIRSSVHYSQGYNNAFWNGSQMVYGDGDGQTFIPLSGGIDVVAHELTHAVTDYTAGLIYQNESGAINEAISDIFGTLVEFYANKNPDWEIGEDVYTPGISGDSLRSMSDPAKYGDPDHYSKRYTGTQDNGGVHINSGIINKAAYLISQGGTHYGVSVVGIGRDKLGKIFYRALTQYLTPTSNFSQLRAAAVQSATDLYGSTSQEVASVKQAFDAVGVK
In words: Inhibition of Bacillus thermoproteolyticus Thermolysin.

The target of series [11] is T2, Thermolysin. Nature of the series: Binding affinity to Bacillus thermoproteolyticus Thermolysin assessed as inhibition constant by Cheng-Prusoff equation analysis.
A short description of series [12]: Acute toxicity in po dosed Swiss albino mouse measured after 24 hrs. Type of series: organism-based. To be noted: in vivo.
In series [13] the test system is Staphylococcus aureus. In words: Antimicrobial activity against Staphylococcus aureus by CLSI method. Type of series: functional.
Series [14] concerns Bacillus subtilis. Nature of the series: Antimicrobial activity against Bacillus subtilis by CLSI method. The class given is functional.
Series [15] relates to Pseudomonas aeruginosa. In words: Antimicrobial activity against Pseudomonas aeruginosa by CLSI method. The class given is functional.
Series [16] concerns Escherichia coli. In words: Antibacterial activity against Escherichia coli by CLSI method. Type of series: functional.
Series [17] deals with Epidermal growth factor receptor (Homo sapiens, UniProt P00533). Nature of the series: Inhibition of wild type human EGFR measured by ELISA analysis. (In general: An ELISA detects its analyte on a solid surface through an enzyme-linked reagent.)
Sequence of Epidermal growth factor receptor (P00533 whole entry): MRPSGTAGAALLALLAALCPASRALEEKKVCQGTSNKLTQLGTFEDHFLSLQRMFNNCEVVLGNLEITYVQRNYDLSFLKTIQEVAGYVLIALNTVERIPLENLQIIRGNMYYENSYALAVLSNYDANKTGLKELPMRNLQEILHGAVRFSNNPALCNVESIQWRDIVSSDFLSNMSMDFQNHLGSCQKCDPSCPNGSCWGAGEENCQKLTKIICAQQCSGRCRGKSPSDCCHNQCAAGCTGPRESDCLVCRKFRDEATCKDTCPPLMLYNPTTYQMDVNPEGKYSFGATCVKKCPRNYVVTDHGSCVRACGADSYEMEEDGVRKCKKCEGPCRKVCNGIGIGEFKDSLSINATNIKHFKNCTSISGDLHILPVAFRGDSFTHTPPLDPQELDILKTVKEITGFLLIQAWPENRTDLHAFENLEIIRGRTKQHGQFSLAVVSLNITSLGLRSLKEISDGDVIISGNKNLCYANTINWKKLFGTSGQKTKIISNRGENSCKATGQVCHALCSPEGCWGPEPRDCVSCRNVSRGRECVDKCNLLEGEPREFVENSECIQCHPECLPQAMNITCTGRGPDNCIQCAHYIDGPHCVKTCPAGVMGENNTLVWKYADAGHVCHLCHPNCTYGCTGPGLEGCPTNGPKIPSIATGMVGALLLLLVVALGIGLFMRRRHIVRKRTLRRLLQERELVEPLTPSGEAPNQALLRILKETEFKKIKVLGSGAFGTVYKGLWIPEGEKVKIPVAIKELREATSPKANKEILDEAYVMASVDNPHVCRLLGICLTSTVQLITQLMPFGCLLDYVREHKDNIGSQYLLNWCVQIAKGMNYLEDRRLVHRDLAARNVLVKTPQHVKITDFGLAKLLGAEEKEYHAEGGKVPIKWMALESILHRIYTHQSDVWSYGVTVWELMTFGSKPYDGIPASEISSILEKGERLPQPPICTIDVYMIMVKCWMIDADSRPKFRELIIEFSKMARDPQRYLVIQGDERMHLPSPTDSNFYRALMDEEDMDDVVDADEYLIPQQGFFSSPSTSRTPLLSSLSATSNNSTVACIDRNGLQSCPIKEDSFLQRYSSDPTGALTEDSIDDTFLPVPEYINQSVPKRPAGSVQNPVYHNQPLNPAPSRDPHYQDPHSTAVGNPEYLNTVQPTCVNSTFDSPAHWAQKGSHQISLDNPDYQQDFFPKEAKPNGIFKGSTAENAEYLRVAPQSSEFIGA
Series [18] concerns Candida albicans. In words: Fungicidal activity against Candida albicans. The class given is functional.
The subject of series [19] is Aspergillus niger. Nature of the series: Fungicidal activity against Aspergillus niger. The class given is functional.
The test system of series [20] is Aspergillus clavatus. In words: Fungicidal activity against Aspergillus clavatus. The class given is functional.
The subject of series [21] is Pseudomonas aeruginosa. In words: Bactericidal activity against Pseudomonas aeruginosa. Type of series: functional.
Series [22] relates to Escherichia coli. In words: Bactericidal activity against Escherichia coli. The class given is functional.

Here are results for 23 compounds from ChEMBL document CHEMBL5230137, “4-(3H)-quinazolinones N-3 substituted with a five membered heterocycle: A promising scaffold towards bioactive molecules” (Eur J Med Chem, 2021).

Converted amounts (≈) assume the structure as drawn. Some results are limits rather than exact numbers.

By MBC is commonly meant the smallest concentration meeting the test's criterion for killing. One may read the IC50 as the concentration that gives 50% inhibition. The Ki is a dissociation constant, usually derived from enzyme kinetics or from competition with a known ligand. What is called MIC is the smallest concentration in the dilution series that meets the test's criterion for growth inhibition. One may read the MFC as the smallest concentration meeting the test's criterion for killing the fungus.

Sequence of Phosphatidylinositol 4,5-bisphosphate 3-kinase catalytic subunit alpha isoform (P42336 whole entry, canonical isoform): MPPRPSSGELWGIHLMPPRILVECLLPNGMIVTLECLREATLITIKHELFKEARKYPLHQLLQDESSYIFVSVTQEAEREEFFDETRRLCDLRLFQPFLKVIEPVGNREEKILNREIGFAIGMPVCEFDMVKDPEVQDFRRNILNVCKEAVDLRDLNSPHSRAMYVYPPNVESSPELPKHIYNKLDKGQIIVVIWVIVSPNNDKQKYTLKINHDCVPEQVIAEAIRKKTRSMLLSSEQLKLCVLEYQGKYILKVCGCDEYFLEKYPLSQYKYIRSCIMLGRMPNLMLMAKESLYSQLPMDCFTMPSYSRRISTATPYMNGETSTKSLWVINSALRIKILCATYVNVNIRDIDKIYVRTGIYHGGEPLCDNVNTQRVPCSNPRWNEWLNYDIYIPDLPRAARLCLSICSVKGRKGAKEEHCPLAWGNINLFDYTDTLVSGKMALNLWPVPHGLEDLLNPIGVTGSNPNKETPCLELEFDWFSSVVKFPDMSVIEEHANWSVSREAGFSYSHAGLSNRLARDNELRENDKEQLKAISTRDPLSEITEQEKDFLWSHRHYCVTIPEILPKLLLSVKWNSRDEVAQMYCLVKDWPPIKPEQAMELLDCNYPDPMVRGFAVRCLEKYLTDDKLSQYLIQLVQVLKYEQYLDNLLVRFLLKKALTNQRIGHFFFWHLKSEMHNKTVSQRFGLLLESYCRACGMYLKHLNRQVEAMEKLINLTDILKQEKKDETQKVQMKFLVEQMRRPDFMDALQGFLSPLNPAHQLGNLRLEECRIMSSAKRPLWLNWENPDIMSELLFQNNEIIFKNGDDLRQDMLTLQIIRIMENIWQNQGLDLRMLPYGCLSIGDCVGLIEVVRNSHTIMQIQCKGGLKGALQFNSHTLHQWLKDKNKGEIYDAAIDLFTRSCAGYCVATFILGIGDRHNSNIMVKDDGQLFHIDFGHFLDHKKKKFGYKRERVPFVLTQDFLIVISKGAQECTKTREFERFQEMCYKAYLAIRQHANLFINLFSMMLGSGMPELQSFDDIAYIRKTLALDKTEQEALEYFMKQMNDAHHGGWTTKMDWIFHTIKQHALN
Sequence of Phosphatidylinositol 4,5-bisphosphate 3-kinase catalytic subunit gamma isoform (P48736 whole entry, canonical isoform): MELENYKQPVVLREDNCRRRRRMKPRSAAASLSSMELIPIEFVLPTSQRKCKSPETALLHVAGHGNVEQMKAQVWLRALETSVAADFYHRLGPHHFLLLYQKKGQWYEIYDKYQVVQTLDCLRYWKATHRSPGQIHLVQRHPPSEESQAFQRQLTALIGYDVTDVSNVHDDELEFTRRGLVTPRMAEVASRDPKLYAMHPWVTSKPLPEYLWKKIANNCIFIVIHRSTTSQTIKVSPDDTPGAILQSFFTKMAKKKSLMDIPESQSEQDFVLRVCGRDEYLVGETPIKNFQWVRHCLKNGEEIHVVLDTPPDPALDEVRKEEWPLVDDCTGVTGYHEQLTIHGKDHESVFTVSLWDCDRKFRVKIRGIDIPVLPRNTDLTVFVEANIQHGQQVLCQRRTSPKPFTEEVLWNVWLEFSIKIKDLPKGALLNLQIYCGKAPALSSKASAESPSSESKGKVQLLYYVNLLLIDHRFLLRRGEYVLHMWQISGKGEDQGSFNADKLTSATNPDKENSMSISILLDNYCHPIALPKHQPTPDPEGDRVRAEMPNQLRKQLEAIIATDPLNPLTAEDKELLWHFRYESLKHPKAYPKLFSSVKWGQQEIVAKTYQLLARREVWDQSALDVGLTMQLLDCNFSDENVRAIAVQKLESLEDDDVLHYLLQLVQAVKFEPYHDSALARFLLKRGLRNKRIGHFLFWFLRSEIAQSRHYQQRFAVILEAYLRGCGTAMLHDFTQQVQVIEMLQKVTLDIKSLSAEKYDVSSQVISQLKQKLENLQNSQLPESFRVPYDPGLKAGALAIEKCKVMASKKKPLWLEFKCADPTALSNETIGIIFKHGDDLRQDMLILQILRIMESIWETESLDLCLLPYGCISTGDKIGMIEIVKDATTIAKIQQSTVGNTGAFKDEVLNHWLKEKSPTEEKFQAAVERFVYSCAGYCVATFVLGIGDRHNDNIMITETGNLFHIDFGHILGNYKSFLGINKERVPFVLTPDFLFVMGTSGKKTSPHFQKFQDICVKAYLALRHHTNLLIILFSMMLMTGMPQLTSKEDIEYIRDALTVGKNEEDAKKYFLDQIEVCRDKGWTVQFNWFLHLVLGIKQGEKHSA

Take `O=c1c2cc(I)ccc2nc(Cc2ccccc2Nc2c(Cl)cccc2Cl)n1-c1ccc(-c2nnc(-c3ccc(Cl)cc3)o2)cc1`: the minimum bactericidal concentration (MBC) in series [1] is 50 µg/mL (≈ 64.4 µM).

On to `CN1CCN(C)/C(=N/c2ccc([N+](=O)[O-])cc2C(=O)Nc2ccccc2)C1`, for which the IC50 in [2] was above 10000 nM; in series [3] it was 82 nM; in series [4] it was above 10000 nM; in series [5], 2260 nM.

As for `Cc1ccc2nc(-c3ccccc3)n(-c3n[nH]c4ccccc34)c(=O)c2c1`, the Ratio IC50 in series [6] amounted to 3.59.

In series [1], `O=c1c2ccccc2nc(Cc2ccccc2Nc2c(Cl)cccc2Cl)n1-c1ccc(-c2nnc(-c3ccccc3Cl)o2)cc1` gave an MBC of 50 µg/mL (≈ 76.8 µM).

Take `O=c1c2ccccc2nc(Cc2ccccc2Nc2c(Cl)cccc2Cl)n1Cc1nnc(-c2ccc(Cl)cc2)o1`: in series [7], the half-inhibitory concentration (IC50) worked out at 1000 nM.

For `Cc1nc2ccccc2c(=O)n1-c1nnc(S)s1`, the results for the Activity in [8] and in series [9] were 28% and 12%, respectively.

For `O=c1c2cc(Cl)ccc2nc(-c2ccccc2)n1-c1n[nH]c2ccccc12`, in [6], the Ratio IC50 amounted to 2.55.

Regarding `O=c1c2ccccc2nc(-c2ccccc2)n1-c1nccs1`, 76800 nM corresponded to half-maximal inhibition in series [10] (IC50). In addition, in series [11], the Ki is 59300 nM.

In the case of `CC1=Cc2ccc(Br)cc2C(=O)C1c1nnc(SCC(=O)NC2C(=O)CSC2c2c(Br)cccc2Br)[nH]1` (centres undefined), the LD in [12] stood at 1400 mg/kg.

As for `O=c1c2cc(Br)ccc2nc(-c2ccccc2)n1-c1n[nH]c2ccccc12`, the Ratio IC50 in series [6] was 1.05.

For the compound `Cn1nccc1-n1c([C@@H]2CSCN2c2ncnc(N)c2C#N)nc2cccc(Cl)c2c1=O`, the IC50 in series [5] is above 10000 nM.

`CC1(C)S[C@@H]2[C@H](NC(=O)[C@H](N)c3ccccc3)C(=O)N2[C@H]1C(=O)O` [AMPICILLIN]: the MBC in series [1] turned out to be 250 µg/mL (≈ 715 µM).

On to `Cn1nccc1-n1c([C@@H]2CSCN2c2ncnc3[nH]cnc23)nc2cccc(Cl)c2c1=O`, for which the figures for the IC50 in series [2] and in series [5] were 9100 nM and 222 nM, respectively.

Regarding `O=c1c2cc(I)ccc2nc(Cc2ccccc2Nc2c(Cl)cccc2Cl)n1-c1ccc(-c2nnc(-c3ccccc3Cl)o2)cc1`, in [1], the MBC stood at 50 µg/mL (≈ 64.4 µM).

Regarding `O=c1c2ccccc2nc(/C=C/c2ccccc2)n1-c1nnc(-c2ccc(Cl)cc2)o1`, the MIC in series [13] is 79 µg/mL (≈ 185 µM); in series [14], 75 µg/mL (≈ 176 µM); in series [15], 70 µg/mL (≈ 164 µM); in [16] it was 70 µg/mL (≈ 164 µM).

For the compound `O=c1c2ccc(Cl)cc2nc(-c2ccccc2)n1-c1nnc(-c2ccccc2C2CC2)o1`, in series [17], the IC50 amounted to 102 nM.

With `N#Cc1c(N)ncnc1N1CSC[C@H]1c1nc2cccc(Cl)c2c(=O)n1-c1cccs1`, the IC50 in [2] was above 10000 nM; in series [3] it was 140 nM; in series [4], 1100 nM; in [5] it was 509 nM.

For the compound `CC1=Cc2ccc(Br)cc2C(=O)C1c1nnc(SCC(=O)N/N=C/c2c(Br)cccc2Br)[nH]1` (centres undefined), the LD in series [12] stood at 1400 mg/kg.

Turning to `O=c1c2cc(I)ccc2nc(Cc2ccccc2Nc2c(Cl)cccc2Cl)n1Cc1nnc(-c2ccccc2Cl)o1`, the minimum fungicidal concentration (MFC) in [18] came to 100 µg/mL (≈ 140 µM); in series [19], 200 µg/mL (≈ 280 µM); in [20] it was 200 µg/mL (≈ 280 µM).

In the case of `O=c1c2cc(Br)ccc2nc(Cc2ccccc2Nc2c(Cl)cccc2Cl)n1Cc1nnc(-c2ccc(Cl)cc2)o1`, in series [1], the MBC came to 50 µg/mL (≈ 74.9 µM). Also, the IC50 in series [7] worked out at 1500 nM.

For `O=c1c2cc(I)ccc2nc(Cc2ccccc2Nc2c(Cl)cccc2Cl)n1Cc1nnc(-c2ccc(Cl)cc2)o1`, the MBC was 150 µg/mL (≈ 210 µM) in [21] and 50 µg/mL (≈ 70 µM) in series [22].

As for `COc1ccc(-c2nnc(-n3c(-c4ccccc4)nc4cc(Cl)ccc4c3=O)o2)cc1`, the IC50 in [17] was 21 nM.

As to `O=c1c2cc(Br)ccc2nc(Cc2ccccc2Nc2c(Cl)cccc2Cl)n1-c1nnc(-c2ccccc2Cl)o1`, in series [1], the MBC is 50 µg/mL (≈ 76.5 µM).
